Experimental data taken from patent publication US5099063A, “Certain phosphinic acid derivatives having antibacterial activity” (Merck & Co., Inc., priority 1990, dated 1992).

Each compound was assayed against T1, D-Alanyl-D-Alanine ligase (Enterococcus hirae, UniProt Q47827) (assay: D-Alanyl-D-Alanine ligase in vitro inhibition). Conditions: inhibitor pre-incubated with enzyme 40 minutes at room temperature, then 37° C. for 30 minutes; 0.005M (14C-1)-D-alanine; read-out: D-AlaAla Ligase Inhibition IC50.
T1 sequence (Q47827 1-358): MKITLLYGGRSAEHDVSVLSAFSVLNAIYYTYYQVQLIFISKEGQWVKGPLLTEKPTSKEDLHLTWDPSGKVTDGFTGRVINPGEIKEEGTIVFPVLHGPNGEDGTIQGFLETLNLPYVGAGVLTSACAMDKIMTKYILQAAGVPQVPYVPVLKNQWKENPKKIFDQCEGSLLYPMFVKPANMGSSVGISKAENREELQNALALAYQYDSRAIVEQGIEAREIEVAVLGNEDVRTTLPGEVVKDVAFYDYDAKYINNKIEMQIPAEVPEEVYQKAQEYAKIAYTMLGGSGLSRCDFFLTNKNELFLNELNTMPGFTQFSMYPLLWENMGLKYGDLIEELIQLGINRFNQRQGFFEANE
Assay type: biochemical
Protocol: The ligase enzyme inhibitory activity of compounds of Formula I have been evaluated in vitro with only minor modifications of the procedures of F. C. Neuhaus (Biochemistry 3, 471-480 (1964) and references cited therein) using D-cycloserine as a control and standard ligase inhibitor. The procedure is as follows:
Streptococcus faecalis (ATCC 8043) was grown as described by Neuhaus (J. Biol. Chem., 237:778, 1962). Cell-free extracts were prepared by sonication followed by centrifugation at 27,000×g for 30 minutes. Protein was precipitated with 55% ammonium sulfate. The precipitate was dissolved in 0.05M Tris-Cl buffer (PH 7.0), dialyzed against 0.0025M glutathione and stored in liquid nitrogen. No loss of activity was observed after 1 year.
The assay mixture contained 0.05M Tris-Cl buffer (pH 7.9), 0.01M KCl, 0.008M MgCl2, 0.005M ATP, 0.005M (14C-1)-D-alanine and 5 μof enzyme (specific activity=0.38 units/mg protein). Assay volume was 0.1 ml.
Inhibitors were pre-incubated with enzyme, MgCl2, KCl and buffer, for 40 minutes at room temperature, before addition of ATP and substrate. Samples were subsequently incubated at 37° C. for 30 minutes.
Twenty μl of each sample was applied to the preabsorbent layer of high resolution, pre-channeled silica-gel TLC plates to stop the reaction. Plates were developed in ethanol:ammonium hydroxide: H2 O (11:1:8) for 2-3 hours and the radioactive zones located and integrated with a Berthold Linear Analyzer. […] IC50 's were determined for active compounds (70% inhibition).
Compound CCCCCCCC(CP(=O)(O)[C@@H](C)N)C(=O)O (stereo partly drawn) [D; R2=n-heptyl; R3=H, 1-D-Aminoethyl-[2-carboxy-1-nonyl]-phosphinic acid] has an IC50 of 4 µM.
COC(=O)C(C)CP(=O)(O)C(C)N (stereo not drawn) [DL; R2=methyl; R3=methyl, 1-Aminoethyl-(2-carbomethoxy-1-propyl)phosphinic acid] showed an IC50 of 60 µM.
Compound CCC(CP(=O)(O)[C@@H](C)N)C(=O)O (stereo partly drawn) [D; R2=ethyl; R3=H, 1-D-Aminoethyl-(2l-carboxy-1-n-butyl)phosphinic acid] has an IC50 of 45 µM.
In the case of CC(N)P(=O)(O)CC(CCCc1ccccc1)C(=O)O (stereo not drawn) [DL; R2=phenylpropyl; R3=H, 1-Aminoethyl-[2-carboxy-5-phenyl-1-n-pentyl]-phosphinic acid], the IC50 is reported as 20 µM.
Compound C=C(CP(=O)(O)[C@@H](C)N)C(=O)O [D; R5=H] has an IC50 of 210 µM.
Work on CCCCCC=C(CP(=O)(O)C(C)N)C(=O)O (racemic) [DL; R5=n-pentyl, (E,Z isomers), 1-Aminoethyl-(2-carboxy-oct-2-enyl)phosphinic acid (E/Z mixture)] yielded an IC50 of 700 µM.
With CC(N)P(=O)(O)C/C(=C/Cc1ccccc1)C(=O)O (racemic) [DL; R5=benzyl (E isomers)] the IC50 was 210 µM.

Each compound was assayed against T2, dehydropeptidase-I (renal dipeptidase, EC 3.4.13.11) (Sus scrofa, UniProt P22412) (assay: Renal dehydropeptidase I inhibition (hydrolysis of glycyldehydrophenylalanine)). Conditions: hog kidney dipeptidase, GDP 0.05 mM, MOPS pH 7.1, 37° C.; Ki stated as concentration which achieves 50% inhibition.
T2 construct: a solubilized preparation of dipeptidase isolated from hog kidneys; from tissue; host or cells: hog kidney
T2 sequence (P22412 17-409): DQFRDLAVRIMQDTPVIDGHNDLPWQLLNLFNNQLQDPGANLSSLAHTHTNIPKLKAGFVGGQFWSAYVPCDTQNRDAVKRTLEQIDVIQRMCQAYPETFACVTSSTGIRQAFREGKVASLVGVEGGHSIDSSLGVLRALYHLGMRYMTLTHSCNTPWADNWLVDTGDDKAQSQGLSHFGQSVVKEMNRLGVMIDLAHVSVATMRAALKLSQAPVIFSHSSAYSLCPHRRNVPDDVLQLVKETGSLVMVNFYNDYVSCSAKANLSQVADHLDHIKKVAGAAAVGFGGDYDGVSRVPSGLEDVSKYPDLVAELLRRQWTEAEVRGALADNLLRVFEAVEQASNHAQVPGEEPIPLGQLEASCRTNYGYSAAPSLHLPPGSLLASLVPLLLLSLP
Assay type: biochemical
Protocol: This measured the ability of compounds to inhibit hydrolysis of glycyldehydrophenylalanine (GDP) by a solubilized preparation of dipeptidase isolated from hog kidneys. The procedure is as follows: to a 1 ml system containing 50 mM "MOPS" (3-(N-morpholino)propanesulfonic acid) buffer, pH 7.1, is added 5 μg of lyophilized enzyme, and the test compound at a final concentration of 0.1 mM. After a five minute incubation at 37° C., GDP is added to a final concentration of 0.05 mM. […] Inhibition of the enzyme is gauged by comparison to a standard run containing no inhibitor and is expressed as the inhibitor binding constant, Ki.
CCCCC(CP(=O)(O)C(C)N)C(=O)O (racemic) [DL; R2=n-butyl] showed a Ki of 0.004 µM.
